From patent US20160168155A1, “POLYMORPH OF SYK INHIBITORS” (GILEAD CONNECTICUT, INC., priority 2013, published 2016)

Legend:
[1] = Hygroscopicity by dynamic vapor sorption (Q5000SA), Example 6A; format: physicochemical; conditions: for hygroscopicity: 0 to 90% RH
Experimental: Hygroscopicity of polymorph Form 3 and polymorph Form 7 at 25° C. was determined by dynamic vapor sorption (DVS) using an automated vapor sorption balance (Q5000SA; TA instruments, New Castle, Del.). Hygroscopicity was studied as a function of relative humidity (RH) over the range of 0 to 90%. Approximately 10 mg of solid sample was placed directly onto the 13 mm quartz DVS sample cup and equilibrated at 0% relative humidity (RH) until a constant weight was achieved. After equilibration, the RH was increased in increments of 10% to reach 90%, and the water sorption was monitored. For desorption, the relative humidity was deceased in a similar manner to accomplish a full sorption/desorption cycle.
For all experiments, the instrument was operated in dm/dt mode (mass variation over time) to determine when equilibrium was reached. A fixed dm/dt value of 0.0010% min^−1 was selected for all RH segments. A maximum stage of 360 minutes and a minimum stage of 60 minutes were selected for these experiments.

[2] = Moisture sorption isotherms (Hiden IGASorp / SMS DVS Intrinsic), Example 6B; format: physicochemical; conditions: for water uptake up to 90% RH / hygroscopicity: 25° C.; for hygroscopicity: sorption isotherm, 0-90% RH
Experimental: Sorption isotherms were obtained using a Hiden IGASorp moisture sorption analyser, controlled by CFRSorp software. The sample temperature was maintained at 25° C. by a Huber re-circulating water bath. The humidity was controlled by mixing streams of dry and wet nitrogen, with a total flow rate of 250 ml/min. The relative humidity (RH) was measured by a calibrated Vaisala RH probe (dynamic range of 0-95% RH), located near the sample. The weight change, (mass relaxation) of the sample as a function of % RH was constantly monitored by the microbalance (accuracy ±0.001 mg).
10-20 mg of sample was placed in a tared mesh stainless steel basket under ambient conditions. The sample was loaded and unloaded at 40% RH and 25° C. (typical room conditions).
A moisture sorption isotherm was performed as outlined in Table 1 below (2 scans giving 1 complete cycle). The standard isotherm was performed at 25° C. at 10% RH intervals over a 0-90% RH range.
The software uses a least squares minimization procedure together with a model of the mass relaxation, to predict an asymptotic value. The measured mass relaxation value must be within 5% of that predicted by the software, before the next % RH value is selected. The minimum equilibration time was set to 1 hour and the maximum to 4 hours. Data analysis was carried out using IGASorp Systems Software v 6.50.55. The sample was recovered after completion of the isotherm and re-analyzed by XRPD.
In other cases, sorption isotherms were also obtained using a SMS DVS Intrinsic moisture sorption analyser, controlled by DVS Intrinsic Control software v1.0.1.2 (or v 1.0.1.3). The sample temperature was maintained at 25° C. by the instrument controls. The humidity was controlled by mixing streams of dry and wet nitrogen, with a total flow rate of 200 ml/min. The relative humidity was measured by a calibrated Rotronic probe (dynamic range of 1.0-100% RH), located near the sample. The weight change, (mass relaxation) of the sample as a function of % RH was constantly monitored by the microbalance (accuracy ±0.005 mg).
5-20 mg of sample was placed in a tared mesh stainless steel basket under ambient conditions. The sample was loaded and unloaded at 40% RH and 25° C. (typical room conditions). A moisture sorption isotherm was performed as outlined in Table 2 below (2 scans giving 1 complete cycle). The standard isotherm was performed at 25° C. at 10% RH intervals over a 0-90% RH range. Data analysis was carried out using Microsoft Excel using DVS Analysis Suite v6.2 (or 6.1 or 6.0). The sample was recovered after completion of the isotherm and re-analyzed by XRPD.

[3] = Intrinsic dissolution rate, rotating disk apparatus; format: physicochemical
Experimental: Intrinsic dissolution rate experiments were conducted using a rotating disk apparatus. Disks of drug substance were prepared by directly compressing 100 mg of powder of polymorph Form 3 in a die at a pressure of 2500 psi for 2 minutes using a hydraulic press (Carver Press, Fred Carver, NJ, USA). The exposed surface area for the resulting disk was 0.5 cm^2. A regular USP dissolution apparatus maintained at 37±0.5° C. was used for the dissolution study. Each dissolution vessel contained 500 mL of aqueous dissolution medium of 0.05 N HCl or pH 6.8 20 mM phosphate buffer with 1% cetyltrimetrylammonium bromide (CTAB). The disk holder (die) was half-immersed into the dissolution medium and rotated at 100 rpm. Samples were withdrawn at specified time intervals and analyzed by HPLC.
The dissolution rate (J) of solid per unit surface area may be described by a diffusion model:
Where D is the diffusion coefficient of the solute, h is the diffusion layer thickness during dissolution at the surface of solid, Cs is the saturation solubility of the solid in the dissolution medium, and Cb is its concentration in the bulk medium. Under sink condition (Cs>>Cb) Equation 2 is reduced to: […]
where dissolution rate is directly proportional to the saturated solubility.

[4] = PK study in pentagastrin- or famotidine-pretreated dogs, oral tablets; conditions: famotidine-pretreated dogs, tablet
Experimental: Pentagastrin pretreatment (6 μg/kg intramuscular injection 30 minutes prior to test formulation dosing) in fasted dogs was used to simulate fasting gastric pH in humans. Famotidine pretreatment (20 mg orally 1 hour prior to test formulation dosing) in fasted dogs was used to simulate human gastric pH when acid suppressant was co-dosed with test formulation. The tablets of the mono-MSA salt or bis-MSA salt of a compound of Formula I (conventional tablet and spray dried formulation) were orally administered followed by a 30 mL water flush.

[5] = DVS, 25° C., listed as Polymorph Form 3
[6] = DVS, 25° C., listed as Polymorph Form 7

Q: For `c1cn2cc(-c3ccc4cn[nH]c4c3)nc(Nc3ccc(N4CCOCC4)cc3)c2n1` [polymorph Form 3], which hygroscopicity ([1]; DVS, 25° C.) is on record?
A: not observed to be hygroscopic

Q: And the hygroscopicity [1, 5]?
A: not observed to be hygroscopic at 70% RH and below

Q: And the “water adsorption / weight gain at 90% RH” value [1, 5]?
A: ~28%

Q: And the “solid form after DVS experiment (XRPD)” value ([1]; sample collected at end of DVS)?
A: converted to Form 7

Q: And the “water uptake up to 90% RH” value ([2]; listed as Form 3)?
A: ~20 wt. %

Q: And the “solid form after DVS analysis (XRPD)” value ([2]; sample after DVS analysis)?
A: converted to Form 7

Q: What about the hygroscopicity [2] of the same molecule?
A: not hygroscopic

Q: What about the hygroscopicity ([2]; listed as Polymorph Form 3) of the same molecule?
A: not observed to be hygroscopic at 70% RH and below

Q: What about the “IDR higher than mono MSA” value ([3]; pH 6.8) of the same molecule?
A: 400 fold

Q: What about the “Intrinsic dissolution rate in pH 6.8 20 mM phosphate with 1% CTAB” value ([3]; pH 6.8, rotating disk, 37° C., 100 rpm) of the same molecule?
A: 1.2 mg/min/cm^2

Q: And the “increase of AUC0-24 compared to the mono-MSA salt formulation” value [4]?
A: more than 10 fold

Q: What about the Solubility in water (Solubility in water) of the same molecule?
A: >100 mg/mL

Q: And the “final pH” value (Solubility in water; final pH of the water solubility sample)?
A: (final pH < 1.5)

Q: Which “Intrinsic dissolution rate in pH 1.3 0.05N HCl with 0.9% NaCl” value ([3]; pH 1.3, rotating disk, 37° C., 100 rpm) does the source give for `c1cn2cc(-c3ccc4cn[nH]c4c3)nc(Nc3ccc(N4CCOCC4)cc3)c2n1` [Free Base, Compound of Formula I] here?
A: 0.00046 mg/min/cm^2

Q: What about the “Intrinsic dissolution rate in pH 6.8 20 mM phosphate with 1% CTAB” value ([3]; pH 6.8, rotating disk, 37° C., 100 rpm, listed as free base of Formula I) of the same molecule?
A: no free base was detectable

Q: And the Solubility in water (Solubility in water)?
A: <0.00005 mg/mL

Q: What does the source list for `c1cn2cc(-c3ccc4cn[nH]c4c3)nc(Nc3ccc(N4CCOCC4)cc3)c2n1` [polymorph Form 7]?
A: hygroscopicity [1, 6]: highly hygroscopic; weight gain at 40% RH ([1]; DVS, 25° C., 40% RH): ~10%; water adsorption / weight gain at 90% RH [1, 6]: ~22%; water uptake up to 90% RH ([2]; listed as Polymorph Form 7): ~21 wt. %; solid form below the stable RH interval ([2]; below 30% RH): becomes amorphous; RH interval in which the form is stable ([2]; room temperature): 30-60 % RH; hygroscopicity ([2]; listed as Polymorph Form 7): highly hygroscopic
